Experimental data from patent publication US12565500B2, “Substituted pyrrolo[1,2-b]pyridazines and pyrrolo[2,1-f][1,2,4]triazines as Btk inhibitors” (BIOGEN MA INC., priority 2019, dated 2026).

Key:
[1] = test system: CD69 expression on CD19+ B cells in human whole blood; assay: In Vitro whole blood CD69 Assay; format: cell-based; conditions: B-cell, human heparinized whole blood, anti-human IgD stimulation
Protocol: In Vitro whole blood CD69 Assay
Human heparinized venous blood from health donors was aliquoted into 96-well plate and “spiked” with serial dilutions of formula I compounds in DMSO or with DMSO without drug. The final concentration of DMSO in all wells was 0.1%. The plate was incubated at 37° C. for 30 min. Drug-containing samples were stimulated with 0.1 μg/mL mouse anti-human IgD-dextran (1A^62) or 20 μg/mL polyclonal rabbit F(ab′)2 anti-human IgD. Phosphate-buffered saline (PBS) was added to the negative control unstimulated sample and the plates were incubated overnight (18 to 22 hours) at 37° C. Cells were stained with fluorochrome-conjugated anti-CD19 and anti-CD69 antibodies. Lyse/fix solution was used to remove red blood cells by hypotonic lysis and to fix the remaining cells, which were then analyzed by flow cytometry. CD19+ B cells were gated and analyzed for CD69 expression. The percentage of B cells expressing CD69 was plotted versus the log 10 of the concentration of the drug and the best-fit curves (variable Hill slope) were generated to obtain the IC50 value.

BTK = BTK (Homo sapiens (Human), UniProt Q06187); assay: In Vitro BTK Kinase Assay: Btk-PolyGAT-LS Assay; format: biochemical; conditions: ATP 10 μM, polyGAT 100 nM, BTK 0.25 nM
Protocol: In Vitro BTK Kinase Assay: Btk-PolyGAT-LS Assay
The purpose of the BTK in vitro assay is to determine compound potency against BTK through the measurement of IC50. Compound inhibition is measured after monitoring the amount of phosphorylation of a fluorescein-labeled polyGAT peptide (Invitrogen PV3611) in the presence of active BTK enzyme (Upstate 14-552), ATP, and inhibitor. The BTK kinase reaction was done in a black 96 well plate (costar 3694). For a typical assay, a […] aliquot of a ATP/peptide master mix (final concentration; ATP 10 μM, polyGAT 100 nM) in kinase buffer (10 mM Tris-HCl pH 7.5, 10 mM MgCl2, 200 μM Na3PO4, 5 mM DTT, 0.01% Triton X-100, and 0.2 mg/ml casein) is added to each well. Next, […] of a 4-fold, 40× compound titration in 100% DMSO solvent is added, followed by adding 15 uL of BTK enzyme mix in 1× kinase buffer (with a final concentration of 0.25 nM). The assay is incubated for 30 minutes before being stopped with […] of a 50 mM EDTA solution. Aliquots (5 uL) of the kinase reaction are transferred to a low volume white 384 well plate (Coming 3674), and 5 pL of a 2× detection buffer (Invitrogen PV3574, with 4 nM Tb-PY20 antibody, Invitrogen PV3552) is added. The plate is covered and incubated for 45 minutes at room temperature. Time resolved fluorescence (TRF) on Molecular Devices M5 (332 nm excitation; 488 nm emission; 518 nm fluorescein emission) is measured. IC50 values are calculated using a four parameter fit with 100% enzyme activity determined from the DMSO control and 0% activity from the EDTA control.
“†” represents an IC50 of greater than 1 μM and equal to or less than 10 μM. “††” represents an IC50 of greater than 10 nM and equal to or less than 1 μM (10 nM<IC50≤1 μM). “†††” represents an IC50 of greater than 1 nM and equal to or less than 10 nM (1 nM<IC50≤10 nM).

BTK, sequence (Q06187 whole entry): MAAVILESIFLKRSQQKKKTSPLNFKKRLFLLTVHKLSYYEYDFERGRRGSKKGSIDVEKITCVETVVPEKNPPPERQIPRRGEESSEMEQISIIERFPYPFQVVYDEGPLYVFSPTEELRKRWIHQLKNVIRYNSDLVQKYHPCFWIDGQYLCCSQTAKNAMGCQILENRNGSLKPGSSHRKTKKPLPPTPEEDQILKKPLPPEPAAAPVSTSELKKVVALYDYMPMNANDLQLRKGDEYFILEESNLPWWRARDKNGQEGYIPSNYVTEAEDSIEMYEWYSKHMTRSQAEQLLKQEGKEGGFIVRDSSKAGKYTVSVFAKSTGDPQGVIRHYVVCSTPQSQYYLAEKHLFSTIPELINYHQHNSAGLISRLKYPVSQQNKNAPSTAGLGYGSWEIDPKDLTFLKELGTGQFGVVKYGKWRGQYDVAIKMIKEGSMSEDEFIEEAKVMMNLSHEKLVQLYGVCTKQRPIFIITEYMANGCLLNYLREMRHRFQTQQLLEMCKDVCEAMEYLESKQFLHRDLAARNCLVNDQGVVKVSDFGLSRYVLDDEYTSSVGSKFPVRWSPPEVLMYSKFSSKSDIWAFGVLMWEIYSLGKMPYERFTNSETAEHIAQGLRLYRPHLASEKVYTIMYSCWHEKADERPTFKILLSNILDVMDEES

Structure (SMILES)	IC50 [1]	IC50 (BTK)
Cc1cc(-c2ncnn3cccc23)ccc1CN1CCN(CC(C)C)C(C)C1=O (stereo not shown) [Compound 2, 4-isobutyl-3-methyl-1-(2-methyl-4-(pyrrolo[2,1-f][1,2,4]triazin-4-yl)benzyl)piperazin-2-one]	≥ 10000 nM	10 to 1000 nM
Cc1cc(-c2ncnn3cccc23)ccc1CN1CCNC(C)C1=O (stereo not shown) [Compound 1, 3-methyl-1-(2-methyl-4-(pyrrolo[2,1-f][1,2,4]triazin-4-yl)benzyl)piperazin-2-one]	≥ 10000 nM	1000 to 10000 nM
Cc1cc(-c2ncnn3cccc23)ccc1CN1CCN(C2CC(F)(F)C2)C(C)C1=O (stereo not shown) [Compound 3, 4-(3,3-difluorocyclobutyl)-3-methyl-1-(2-methyl-4-(pyrrolo[2,1-f][1,2,4]triazin-4-yl)benzyl)piperazin-2-one]	–	1000 to 10000 nM
Cc1cc(-c2ncnn3cc(-c4cnn(C)c4)cc23)ccc1CN1CCN(CC(C)C)C(C)C1=O (stereo not shown) [Compound 4, 4-isobutyl-3-methyl-1-(2-methyl-4-(6-(1-methyl-1H-pyrazol-4-yl)pyrrolo[2,1-f][1,2,4]triazin-4-yl)benzyl)piperazin-2-one]	≥ 10000 nM	1 to 10 nM
